Test results from patent US11753403B2, “EIF4E inhibitors and uses thereof” (PIC Therapeutics, Inc., priority 2020, dated 2023).

Biological target: Human eIF4E (aa 28-217) / biotin labeled 4G2 peptide (Homo sapiens (Human), UniProt P06730)
Assay: Human eIF4E/4G2 binding assay (TR-FRET)
Details: Human eIF4E/4G2 TR-FRET binding assay; head says IC50, legend says EC50
Summary of the method: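 Refolded His-tagged human eIF4E (aa 28-217), 82.5 nM working stock, preincubated 4 h at RT with compounds (10-point 2-fold series) in NaPi pH 6.5 buffer with DTT and gamma globulin. Biotin-4G2 peptide then added for 20 min, followed by Eu-streptavidin/APC-anti-His for 20 min; TR-FRET 665/615 nm ratio normalized, IC50 fitted.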

Chain of Human eIF4E (aa 28-217) / biotin labeled 4G2 peptide (P06730 28-217): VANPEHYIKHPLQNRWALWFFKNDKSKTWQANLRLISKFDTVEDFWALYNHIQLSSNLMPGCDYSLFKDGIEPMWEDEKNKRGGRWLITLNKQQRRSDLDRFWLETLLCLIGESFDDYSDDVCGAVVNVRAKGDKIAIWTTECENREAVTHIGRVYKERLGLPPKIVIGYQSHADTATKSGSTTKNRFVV

Question: `O=C(O)c1sc(C2CCCC2)cc1Nc1nc(CCc2ccccc2)c(-c2ccc(Cl)c(Cl)c2)s1` [I-309] was tested. Which IC50 did it give?
Answer: ≤ 1000 nM

Question: With `O=C(O)c1sc(C2CCCC2)cc1Nc1nc(Cc2ccccc2)c(-c2ccccc2)s1` [I-310] as the molecule, how does the IC50 read?
Answer: ≤ 1000 nM

Question: Which IC50 does the source give for `CC(C)c1sc(Nc2ncc(C(F)(F)F)cc2C(=O)O)nc1-c1nc2ccccc2s1` [I-320, 2-(4-(benzo[d]thiazol-2-yl)-5-isopropylthiazol-2-ylamino)-5-(trifluoromethyl)nicotinic acid] here?
Answer: ≤ 1000 nM

Question: For `CC(C)Cc1sc(Nc2ncc(C(F)(F)F)cc2C(=O)O)nc1-c1ccc2ccccc2c1` [I-321], which IC50 is on record?
Answer: ≤ 1000 nM

Question: With `CC(C)Cc1sc(Nc2ncc(-c3ccc4ccccc4c3)cc2C(=O)O)nc1-c1ccc(Cl)c(Cl)c1` [I-322, 2-(4-(3,4-dichlorophenyl)-5-isobutylthiazol-2-ylamino)-5-(naphthalen-2-yl)nicotinic acid] as the molecule, how does the IC50 read?
Answer: ≤ 1000 nM

Question: With `CC(C)c1sc(Nc2ncc(C(F)(F)F)cc2C(=O)O)nc1-c1ccc(Cl)cc1Cl` [I-323, 2-(4-(2,4-dichlorophenyl)-5-isopropylthiazol-2-ylamino)-5-(trifluoromethyl)nicotinic acid] as the molecule, how does the IC50 read?
Answer: ≤ 1000 nM

Question: Which IC50 does the source give for `COc1ccc(-c2nc(Nc3ncc(-c4cccs4)cc3C(=O)O)sc2C(C)C)cc1Cl` [I-324] here?
Answer: ≤ 1000 nM

Question: With `COc1ccc(-c2nc(Nc3ncc(C(F)(F)F)cc3C(=O)O)sc2CC(C)C)cc1Cl` [I-325] as the molecule, how does the IC50 read?
Answer: ≤ 1000 nM

Question: Which IC50 does the source give for `COc1ccc(-c2nc(Nc3ncc(C(F)(F)F)cc3C(=O)O)sc2C(C)C)cc1Cl` [I-326] here?
Answer: ≤ 1000 nM

Question: `COCCOc1ccc(-c2nc(Nc3ncc(-c4cccs4)cc3C(=O)O)sc2CC(C)C)cc1Cl` [I-327] was tested. Which IC50 did it give?
Answer: ≤ 1000 nM

Question: For `CC(C)Cc1sc(Nc2ncc(-c3cccs3)cc2C(=O)O)nc1-c1ccc(OCC(N)=O)c(Cl)c1` [I-329, 2-(4-(4-(2-amino-2-oxoethoxy)-3-chlorophenyl)-5-isobutylthiazol-2-ylamino)-5-(thiophen-2-yl)nicotinic acid], which IC50 is on record?
Answer: ≤ 1000 nM

Question: Which IC50 does the source give for `CCOc1ccc(-c2nc(Nc3ncc(-c4cccs4)cc3C(=O)O)sc2CC(C)C)cc1Cl` [I-330] here?
Answer: ≤ 1000 nM

Question: `CC(C)Cc1sc(Nc2ncc(-c3cccs3)cc2C(=O)O)nc1-c1ccc(OCCO)c(Cl)c1` [I-331] was tested. Which IC50 did it give?
Answer: ≤ 1000 nM

Question: How did the IC50 turn out when `CC(C)Cc1sc(Nc2ncc(-c3cccs3)cc2C(=O)O)nc1-c1ccc(OCC2CC2)c(Cl)c1` [I-332] was run?
Answer: ≤ 1000 nM

Question: How did the IC50 turn out when `COc1ccc(-c2nc(Nc3ncc(-c4cccs4)cc3C(=O)O)sc2CC(C)C)cc1` [I-333] was run?
Answer: ≤ 1000 nM
